Measured values as given in US6303625A, “Triazolopyridines for the treatment of thrombosis disorders” (Ortho-McNeil Pharmaceutical, Inc., priority 1999, dated 2001).

Assays:
[1] = molecular target: GPIIb/IIIa (Homo sapiens, UniProt P05106+P08514); assay: In vitro solid phase purified glycoprotein IIb/IIIa binding assay (fibrinogen binding); conditions: for inhibition at 50 µM: read-out: Fibrinogen Binding % Inh. (50 μM)
Protocol: In Vito Solid Phase Purified Glycoprotein IIB/IIA Binding Assay
The plate was covered and incubated overnight at 4° C. The GPIIb/IIa solution was discarded and 150 μl of 5% BSA was added and incubated at RT for 1-3 h. The plate was washed extensively with modified Tyrodes buffer. Biotinylated fibrinogen (25 μl/well) at 2×final concentration was added to the wells that contain the test compounds (25 μl/well). The plate was covered and incubated at RT for 2-4 h. Twenty minutes prior to incubation completion, one drop of Reagent A (Vecta Stain ABC Horse Radish Peroxidase kit, Vector Laboratories, Inc.) and one drop Reagent B were added with mixing to 5 mL modified Tyrodes buffer mix and let stand. The ligand solution was discarded and the plate washed (5×200 μl/well) with modified Tyrodes buffer. Vecta Stain HRP-Biotin-Avidin reagent (50 μl/well, as prepared above) was added and incubated at RT for 15 min. The Vecta Stain solution was discarded and the wells washed (5×200 μl/well) with modified Tyrodes buffer. Developing buffer (10 mL of 50 mM citrate/phosphate buffer @ pH 5.3, 6 mg o-phenylenediamine, 6 μl 30% H2 O2; 50 μl/well) was added and incubated at RT for 3-5 min, and then 2N H2 SO4 (50 μl/well) was added. The absorbance was read at 490 nm.

[2] = test system: gel-filtered platelets; assay: In vitro inhibition of thrombin-induced gel-filtered platelet aggregation; format: cell-based; conditions: Homo sapiens; for inhibition at 50 µM: read-out: Platelet Aggregation % Inh. (50 μM)
Protocol: In Vitro Inhibition of Thrombin-Induced Gel-Filtered Platelet Aggression Assay
The percentage of platelet aggregation is calculated as an increase in light transmission of compound-treated platelet concentrate vs. control-treated platelet concentrate. Human blood was obtained from drug free, normal donors into tubes containing […] sodium citrate. Platelet rich plasma (PRP) was collected by centrifugation of whole blood at 200×g for 10 min at 25° C. The PRP (5 mL) was gel filtered through Sepharose 2B (bed volume 50 mL), and the platelet count was adjusted to 2×10^7 platelets per sample. The following constituents were added to a siliconized cuvette: concentrated platelet filtrate and Tyrode's buffer (0.14M NaCl, 0.0027M KCl, 0.012M NaHCO3,0.76 mM Na2 HPO4, 0.0055M glucose, 2 mg/mL BSA and 5.0 mM HEPES @ pH 7.4) in an amount equal to 350 μl, 50 μl of 20 mM calcium and 50 μl of the test compound. Aggregation was monitored in a BIODATA aggregometer for the 3 min following the addition of agonist (thrombin 50 μl of 1 unit/mL).

[3] = test system: ADP-induced ex vivo platelet aggregation; assay: Ex vivo dog study: duration of >50% inhibition of ADP-induced ex vivo platelet aggregation; format: in vivo; conditions: for Intravenous Dosing Duration (of >50% inhibition of ADP-induced ex vivo platelet aggregation): 0.1 mpk; for Oral Dosing Duration (of >50% inhibition of ADP-induced ex vivo platelet aggregation): 1 mpk
Protocol: Adult mongrel dogs (8-13 kg) were anesthetized with sodium pentobarbital (35 mg/kg, i.v.) and artificially respired. Arterial blood pressure and heart rate were measured using a Millar catheter-tip pressure transducer inserted in a femoral artery. Another Millar transducer was placed in the left ventricle (LV) via a carotid artery to measure LV end diastolic pressure and indices of myocardial contractility. A lead II electrocardiogram was recorded from limb electrodes. Catheters were placed in a femoral artery and vein to sample blood and infuse drugs, respectively. Responses were continuously monitored using a Modular Instruments data acquisition system.
Arterial blood samples (5-9 ml) were withdrawn into tubes containing 3.8% sodium citrate to prepare platelet rich plasma (PRP) and to determine effects on coagulation parameters: prothrombin time (PT) and activated partial thromboplastin time (APTT). Separate blood samples (1.5 ml) were withdrawn in EDTA to determine hematocrit and cell counts (platelets, RBC's and white cells). Template bleeding times were obtained from the buccal surface using a symplate incision devise and Whatman filter paper.
Aggregation of PRP was performed using a BioData aggregometer. Aggregation of whole blood used a Chronolog impedance aggregometer. PT and APTT were determined on either a BioData or ACL 3000+ coagulation analyzer. Cells were counted with a Sysmex K-1000.
Compounds were solubilized in a small volume of dimethylformamide (DMF) and diluted with saline to a final concentration of 10% DMF. Compounds were administered by the intravenous route with a Harvard infusion pump. Doses was administered over a 15 min interval at a constant rate of 0.33 ml/min. Data were obtained after each dose and in 30 min intervals following the end of drug administration. Oral doses were administered as aqueous solutions via syringe.

Sequence of GPIIb/IIIa (P08514 32-887 limits assumed): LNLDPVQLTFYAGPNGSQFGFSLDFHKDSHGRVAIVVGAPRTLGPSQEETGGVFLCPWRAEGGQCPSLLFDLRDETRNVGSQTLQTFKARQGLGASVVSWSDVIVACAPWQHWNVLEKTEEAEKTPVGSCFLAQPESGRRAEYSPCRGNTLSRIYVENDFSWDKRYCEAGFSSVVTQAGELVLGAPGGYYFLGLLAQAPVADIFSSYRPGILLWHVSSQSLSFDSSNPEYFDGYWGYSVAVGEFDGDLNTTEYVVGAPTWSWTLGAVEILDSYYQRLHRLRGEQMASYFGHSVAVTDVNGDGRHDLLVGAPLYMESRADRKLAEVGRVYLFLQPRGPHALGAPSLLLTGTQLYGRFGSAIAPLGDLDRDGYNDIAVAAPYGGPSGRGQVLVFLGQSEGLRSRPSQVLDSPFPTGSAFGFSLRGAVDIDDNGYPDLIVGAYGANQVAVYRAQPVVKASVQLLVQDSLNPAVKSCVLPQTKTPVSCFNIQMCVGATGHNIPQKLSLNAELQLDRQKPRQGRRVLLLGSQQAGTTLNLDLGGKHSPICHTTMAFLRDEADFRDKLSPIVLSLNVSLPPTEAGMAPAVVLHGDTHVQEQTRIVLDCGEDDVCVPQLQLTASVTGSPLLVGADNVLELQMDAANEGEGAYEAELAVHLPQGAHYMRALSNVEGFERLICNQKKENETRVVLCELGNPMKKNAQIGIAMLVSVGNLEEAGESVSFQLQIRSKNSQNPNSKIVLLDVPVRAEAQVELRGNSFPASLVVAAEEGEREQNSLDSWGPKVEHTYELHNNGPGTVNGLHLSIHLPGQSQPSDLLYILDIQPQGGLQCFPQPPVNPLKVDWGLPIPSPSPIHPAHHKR
Sequence of GPIIb/IIIa (P08514 891-1039 limits assumed): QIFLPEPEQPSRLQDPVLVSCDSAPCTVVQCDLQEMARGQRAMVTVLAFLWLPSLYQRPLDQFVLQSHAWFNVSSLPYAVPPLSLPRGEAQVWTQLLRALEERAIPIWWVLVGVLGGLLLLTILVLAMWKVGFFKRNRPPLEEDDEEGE
Sequence of GPIIb/IIIa (P05106 27-788): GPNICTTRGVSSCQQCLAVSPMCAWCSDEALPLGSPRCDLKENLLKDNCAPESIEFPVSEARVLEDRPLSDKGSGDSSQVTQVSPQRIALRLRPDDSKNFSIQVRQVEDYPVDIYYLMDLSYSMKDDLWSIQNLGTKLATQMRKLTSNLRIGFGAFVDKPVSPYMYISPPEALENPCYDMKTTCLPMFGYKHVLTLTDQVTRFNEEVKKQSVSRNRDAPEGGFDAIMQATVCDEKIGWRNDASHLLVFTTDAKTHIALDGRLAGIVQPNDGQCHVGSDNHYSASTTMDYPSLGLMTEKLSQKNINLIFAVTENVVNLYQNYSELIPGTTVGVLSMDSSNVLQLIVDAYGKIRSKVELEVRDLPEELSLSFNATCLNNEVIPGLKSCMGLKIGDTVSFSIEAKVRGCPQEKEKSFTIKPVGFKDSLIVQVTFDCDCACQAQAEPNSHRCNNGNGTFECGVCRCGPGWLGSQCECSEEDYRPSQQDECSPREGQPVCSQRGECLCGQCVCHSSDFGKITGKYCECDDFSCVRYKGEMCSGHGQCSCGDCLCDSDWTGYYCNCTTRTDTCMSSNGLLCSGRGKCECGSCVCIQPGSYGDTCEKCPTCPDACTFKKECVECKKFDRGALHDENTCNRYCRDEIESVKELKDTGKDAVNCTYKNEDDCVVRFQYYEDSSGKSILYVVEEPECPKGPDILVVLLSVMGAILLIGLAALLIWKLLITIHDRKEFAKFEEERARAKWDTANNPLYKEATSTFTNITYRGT

Structure (SMILES) | IC50 [1] [nM] | inhibition at 50 µM [1] [%] | IC50 [2] [nM] | inhibition at 50 µM [2] [%] | Intravenous Dosing Duration (of >50% inhibition of ADP-induced ex vivo platelet aggregation) [3] [min] | Oral Dosing Duration (of >50% inhibition of ADP-induced ex vivo platelet aggregation) [3] [min]
O=C(O)C[C@H](NC(=O)C1CCCn2c(/C=C/C3CCNCC3)nnc21)c1cccnc1 (stereo partly drawn) [Compound 12, β-[[[5,6,7,8-Tetrahydro-3-[2-(4-piperidinyl)E-ethylene]-1,2,4-triazolo[4,3-a]pyridin-8-yl]carbonyl]amino]-βS-3-pyridylpropanoic acid] | 0.14 | 100 | 30 | 100 | 150 | 360
O=C(N[C@@H](CNC(=O)C1CCCn2c(/C=C/C3CCNCC3)nnc21)C(=O)O)OCc1ccccc1 (stereo partly drawn) [Compound 5, β-[[[5,6,7,8-Tetrahydro-3-[2-(4-pipieridinyl)E-ethylene]-1,2,4-triazolo[4,3-a]pyridin-8-yl]carbonyl]amino]-αS-benzyloxycarbonylamino-propanoic acid] | 0.1 | 100 | 23 | 100 | 120 | 360
O=C(N[C@@H](CNC(=O)C1CCCn2c(CCC3CCNCC3)nnc21)C(=O)O)OCc1ccccc1 (stereo partly drawn) [Compound 3, β-[[[5,6,7,8-Tetrahydro-3-[2-(4-piperidinyl)ethyl]-1,2,4-triazolo[4,3-a]pyridin-8-yl]carbonyl]amino]-αS-benzyloxycarbonylamino-propanoic acid] | 0.48 | 100 | 68 | 100 | 120 | 300
O=C(O)CCNC(=O)C1CCCn2c(CCC3CCNCC3)nnc21 (stereo not drawn) [Compound 2, β-[[[5,6,7,8-Tetrahydro-3-[2-(4-piperidinyl)ethyl]-1,2,4-triazolo[4,3-a]pyridin-8-yl]carbonyl]amino]-β-propanoic acid] | 7.2 | 98 | 1300 | 98 |  | 
O=C(NC(CNC(=O)C1CCCn2c(C(F)=CC3CCNCC3)nnc21)C(=O)O)OCc1ccccc1 (stereo not drawn) [Compound 9, β-[[[6,7,8-Tetrahydro-3-[2-(4-piperidinyl)Z-1-fluoroethylene]-1,2,4-triazolo[4,3-a]pyridin-8-yl]carbonyl]amino]-αS-benzyloxycarbonylamino-propanoic acid] | 1.7 | 100 | 500 | 100 |  | 
CCN(CC)C(=O)COC(=O)[C@H](CNC(=O)C1CCCn2c(CCC3CCNCC3)nnc21)NC(=O)OCc1ccccc1 (stereo partly drawn) [Compound 6, β-[[[5,6,7,8-Tetrahydro-3-[2-(4-piperidinyl)ethyl]-1,2,4-triazolo[4,3-a]pyridin-8-yl]carbonyl]amino]-αS-benzyloxycarbonylamino-propanoic acid 2-(Diethylamino)-2-oxoethyl ester] | 8.2 | 100 | 1900 | 100 |  | 
CC1(C(=O)NC[C@H](NC(=O)OCc2ccccc2)C(=O)O)CCCn2c(CCC3CCNCC3)nnc21 (stereo partly drawn) [Compound 8, β-[[[5,6,7,8-Tetrahydro-8-methyl-3-[2-(4-piperidinyl)ethyl]-1,2,4-triazolo[4,3-a]pyridin-8-yl]carbonyl]amino]-αS-benzyloxycarbonylamino-protanoic acid] | 18.1 | 100 | 2100 | 100 |  | < 30
O=C(O)CC(NC(=O)C1CCCn2c(/C=C/C3CCNCC3)nnc21)c1ccncc1 (stereo not drawn) [Compound 10, β-[[[5,6,7,8-Tetrahydro-3-[2-(4-piperidinyl)E-ethylene]-1,2,4-triazolo[4,3-a]pyridin-8-yl]carbonyl]amino]-β-4-pyridinepropanoic acid] | 0.94 | 100 | 180 | 100 |  | 
O=C(NC[C@H](NS(=O)(=O)Cc1ccccc1)C(=O)O)C1CCCn2c(/C=C/C3CCNCC3)nnc21 (stereo partly drawn) [Compound 14, β-[[[5,6,7,8-Tetrahydro-3-[2-(4-piperidinyl)E-ethylene]-1,2,4-triazolo[4,3-a]pyridin-8-yl]carbonyl]amino]-αS-benzylsulfonylamino-propanoic acid] | 0.51 | 100 | 43 | 100 |  | 
O=C(Cc1cccnc1)N[C@@H](CNC(=O)C1CCCn2c(/C=C/C3CCNCC3)nnc21)C(=O)O (stereo partly drawn) [Compound 15, β-[[[5,6,7,8-Tetrahydro-3-[2-(4-piperidinyl)E-ethylene]-1,2,4-triazolo[4,3-a]pyridin-8-yl]carbonyl]amino]-αS-3-pyridylacetylamino-propanoicacid] | 1.4 | 100 | 120 | 100 |  | 
Cc1noc(C)c1S(=O)(=O)N[C@@H](CNC(=O)C1CCCn2c(/C=C/C3CCNCC3)nnc21)C(=O)O (stereo partly drawn) [Compound 11, β-[[[5,6,7,8-Tetrahydro-3-[2-(4-piperidinyl)E-ethylene]-1,2,4-triazolo[4,3-a]pyridin-8-yl]carbonyl]amino]-αS-4-(3,5-dimethylisoxazolyl)sulfonylamino-propanoic acid] | 1.1 | 100 | 110 | 100 |  | 
O=C(O)C[C@H](NC(=O)c1cccn2c(CCC3CCNCC3)nnc12)c1cccnc1 [Compound 17, β-[[[3-[2-(4-piperidinyl)ethyl]-1,2,4-triazolo[4,3-a]pyridin-8-yl]carbonyl]amino]-βS-3-pyridylpropanoic acid] | 443 | 90 | > 1000 |  |  | 
CC(C)COC(=O)N[C@@H](CNC(=O)C1CCCn2c(/C=C/C3CCNCC3)nnc21)C(=O)O (stereo partly drawn) [Compound 16, β-[[[5,6,7,8-Tetrahydro-3-[2-(4-piperidinyl)E-ethylene]-1,2,4-triazolo[4,3-a]pyridin-8-yl]carbonyl]amino]-αS-isobutyloxycarbonylamino-propanoic acid] | 0.6 | 100 | 600 | 100 |  | 
O=C(O)C[C@H](NC(=O)C1CCCn2c(/C=C/C3CCNCC3)nnc21)c1cnc2ccccc2c1 (stereo partly drawn) [Compound 13, β-[[[5,6,7,8-Tetrahydro-3-[2-(4-piperidinyl)E-ethylene]-1,2,4-tiazolo[4,3-a]pyridin-8-yl]carbonyl]amino]-βS-3-quinolinylpropanoic acid] | 0.44 | 100 | 57 | 100 |  | 
O=C(O)CC(NC(=O)C1CCCn2c(CCC3CCNCC3)nnc21)c1ccsc1 (stereo not drawn) [Compound 7, β-[[[5,6,7,8-Tetrahydro-3-[2-(4-piperidinyl)ethyl]-1,2,4-triazolo[4,3-a]pyridin-8-yl]carbonyl]amino]-β-3-thiophenepropanoic acid] | 0.75 | 100 | 350 | 100 |  | 
